# Measured values from patent US20200131473A1, “METHOD OF GENERATING 2 CELL-LIKE STEM CELLS” (IFOM FONDAZIONE ISTITUTO FIRC DI ONCOLOGIA MOLECOLARE, priority 2017, published 2020).
# “Also recorded” adds a separate entry of the source.
# What was measured:
# [1] = test system: 2C-like genes (Zscan4, MuERV-L/MERVL, Dux) in ESCs (E14, R1); test: qPCR for 2C-like specific genes in ESCs; type: cell-based, mouse
# Method: All treatments including APH, HU, UV, ATRi, ATMi and Chk1i were added in to fresh ESC medium and the cells were kept in 37° C. and 3% 02 tension for overnight (16-17 hrs) unless mentioned in each particular result section. APH was used at various concentrations ranging from 0.3 uM to 6 uM that is mentioned in each experiment in order to induce mild to acute replication stress response. Similarly, HU was used at 0.1 mM-3 mM. ATMi (KU-55933) and ATRi (VE 822) were used at the concentration of 10 uM and 1 uM respectively. Moreover, Chk1i (UCN-01) at the concentration of 100 nM was used. UV radiation was performed at the dosage ranging from 2 to 10 J/m2. For induction of ETAA1-AAD expression, Dox was used at the concentration of 1 μg/mL for 48 hrs.
# (§1) RNA was extracted using RNeasy mini kit (QIAGEN), quantified by NanoDrop spectrophotometer and cDNA was prepared from 2 μg total DNA-depleted RNA using SuperScript™ III reverse transcriptase kit (Invitrogen cat #18080-093) following manufacturer's instructions. qPCR assay performed based on standard protocol using 10× SsoFast™ EvaGreen® Supermix or later 1× LightCycler 480 SYBR Green I Master (Roche, 04707516001), 0.5 μM primer mix and 5 ng of cDNA. GAPDH was used as internal control to normalise the qPCR data following ΔΔCt method, 10 μM primer mix and a total amount of cDNA corresponding to 5 ng of starting RNA for each reaction.
# C57BL/6N morulae = test: Viability of APH-treated embryos; type: cell-based, mouse; settings: APH 1.5 μM in KSOM for 4 hrs
# [2] = test system: mouse embryonic fibroblast (MEF) lines; test: qPCR for 2C-specific markers in MEF lines; type: cell-based; settings: two MEF lines with distinct genetic backgrounds
# Method: ESCs were grown in feeder free culture condition either with or without 0.1% gelatin coat and incubated in 37° C. and 3% 02 tension. ESC medium (high glucose DMEM (DMEM Media—GlutaMAX™-I, Gibco)), 15% ESC qualified FBS (HyClone™ Fetal Bovine Serum), 2 mM L-glutamine, 1/500 home-made leukemia inhibitory factor, 0.1 mM non-essential amino acids, 0.1 mM 2-bmercaptoethanol, 50 units/ml penicillin, […] streptomycin, 1 mM Sodium Pyruvate) supplemented with two inhibitors (2i from Axon medchem) that are PD 0325901; highly specific non-ATP-competitive inhibitor of MEK (aka MKK) 1/2 at final concentration of 1 uM and CHIR 99021; specific glycogen synthase kinase GSK-3 inhibitor at final concentration of 3 uM. MEF cells were cultured in MEF medium (high glucose DMEM (Lonza), 10% north America FBS, 2 mM L-glutamine, 0.1 mM non-essential amino acids, 50 units/ml penicillin, 1 mM Sodium Pyruvate and […] streptomycin).
# as §1, with “GAPDH was used as internal control to normalise the qPCR data following ΔΔCt method, 10 μM primer mix and a total amount of cDNA corresponding to 5 ng of starting RNA for each reaction.” left out
smiles,measurement,setting,value
"C[C@@]1(CO)[C@H](O)CC[C@@]2(C)[C@H]1CC[C@H]1C[C@@H]3C[C@@]12CC[C@]3(O)CO [APH, aphidicolin]",expression of key 2C-like genes in DUX KO ESCs,[1]; APH treatment,could not induce
same,"main 2C-like genes, qPCR validation of profiling",[1]; APH treatment,significant upregulation
same,expression of 2C-like genes in ATR Seckel ESCs,"[1]; APH treatment, unlike normal wild type ESC",milder increase; also recorded: mild increase
same,expression of Zscan4 and MuERV-L (QPCR and FACS),"[1]; ESC lines E14 and R1, time and dosage-dependent",significantly upregulated
same,viability of the embryos,C57BL/6N morulae,no effect on the viability of the embryos
same,expression of main 2C-specific markers such as MuERV-L in MEF lines,[2],do not alter
